Test results: patent US20230114728A1 (Venatorx Pharmaceuticals, Inc., priority 2019, published 2023)
Values after ≈ are worked out from the molar mass of the structure shown.

Legend:
E. coli ATCC 25922 = assay: Broth microdilution MIC in CAMHB; type: cell-based; conditions: Escherichia coli, ATCC25922; E. coli ATCC 25922; MHB; read-out: Minimum Inhibitory Concentration, E. coli 25922
How it was run: (§1)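 Hyper-permeable or efflux-deficient strains serve to probe outer-membrane penetration. Growth inhibition is scored visually after 16-20 h at 37° C in CAMHB, starting from 2-8×10^5 CFU/mL.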

E. coli D22 = assay: Broth microdilution MIC in CAMHB; type: cell-based; conditions: Escherichia coli; E. coli D22 (hyper-permeable); MHB; read-out: Minimum Inhibitory Concentration, E. coli D22
How it was run: as §1

E. coli AG100 = assay: Broth microdilution MIC in CAMHB; type: cell-based; conditions: Escherichia coli; E. coli AG100 (wild-type parent); MHB; read-out: Minimum Inhibitory Concentration, E. coli AG100
How it was run: as §1

P. aeruginosa ATCC 35151 = assay: Broth microdilution MIC in CAMHB; type: cell-based; conditions: Pseudomonas aeruginosa, ATCC35151; MHB; hyper-permeable strain; read-out: Minimum Inhibitory Concentration, P. aeruginosa ATCC 35151
How it was run: as §1

P. aeruginosa ATCC 27853 = assay: Broth microdilution MIC in CAMHB; type: cell-based; conditions: Pseudomonas aeruginosa, ATCC27853; MHB; read-out: Minimum Inhibitory Concentration, P. aeruginosa ATCC 27853
How it was run: as §1

[1] = test system: K. pneumoniae SI-117 producing VIM-1; assay: Broth microdilution MIC in CAMHB; type: cell-based; conditions: Klebsiella pneumoniae, read-out: Minimum Inhibitory Concentration, K. pneumoniae SI-117
How it was run: as §1

E. coli AG100A = assay: Broth microdilution MIC in CAMHB; type: cell-based; conditions: Escherichia coli, read-out: Minimum Inhibitory Concentration, E. coli AG100A
How it was run: as §1

[2] = test system: K. pneumoniae 848844 producing SHV-11 and KPC-2; assay: Broth microdilution MIC in CAMHB; type: cell-based; conditions: Klebsiella pneumoniae, read-out: Minimum Inhibitory Concentration, K. pneumoniae 848844
How it was run: as §1

E. coli K12 PBP3 = target: T1, E. coli K12 PBP3 (Escherichia coli, UniProt P0AD68); assay: biochemical; type: binding
T1 construct: made in house
How it was run: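 A. baumannii PBP2 (2.5 μM) and PBP3 (0.2 μM) were run in 25 mM Tris pH 8.0 buffer with Tween 20; E. coli PBP3 (1.5 μM) and N. gonorrhoeae PBP2 ([…]) in 50 mM Hepes pH 8.0 buffer.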

T1 sequence (P0AD68 1-577): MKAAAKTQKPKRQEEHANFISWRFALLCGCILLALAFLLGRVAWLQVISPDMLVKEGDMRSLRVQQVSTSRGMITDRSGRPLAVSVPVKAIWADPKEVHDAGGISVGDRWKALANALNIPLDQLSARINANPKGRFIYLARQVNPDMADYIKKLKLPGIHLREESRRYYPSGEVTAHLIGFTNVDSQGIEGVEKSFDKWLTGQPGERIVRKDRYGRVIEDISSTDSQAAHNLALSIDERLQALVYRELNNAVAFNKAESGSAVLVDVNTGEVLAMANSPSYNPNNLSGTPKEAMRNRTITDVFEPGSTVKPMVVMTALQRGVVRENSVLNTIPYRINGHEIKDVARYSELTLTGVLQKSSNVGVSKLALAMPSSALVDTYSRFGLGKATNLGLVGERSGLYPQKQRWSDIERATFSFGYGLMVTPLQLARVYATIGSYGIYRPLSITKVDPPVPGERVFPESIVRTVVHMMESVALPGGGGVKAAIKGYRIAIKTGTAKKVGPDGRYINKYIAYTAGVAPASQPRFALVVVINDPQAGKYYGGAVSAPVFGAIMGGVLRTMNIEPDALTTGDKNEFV

Structure (SMILES) | MIC (E. coli ATCC 25922) [µg/mL] | MIC (E. coli D22) [µg/mL] | MIC (E. coli AG100) [µg/mL] | MIC (P. aeruginosa ATCC 35151) [µg/mL] | MIC (P. aeruginosa ATCC 27853) [µg/mL] | MIC [1] [µg/mL] | MIC (E. coli AG100A) [µg/mL] | MIC [2] [µg/mL] | EC50 (E. coli K12 PBP3) [µM]
NCCN1CCN(C(=O)N[C@@H](C(=O)N[C@H]2Cc3cccc(C(=O)O)c3OB2O)c2c(O)cc(O)cc2F)C(=O)C1=O (single isomer, unassigned) [Example 194] | 8 to 16 (≈ 14 to 27.9 µM) | 2 to 4 (≈ 3.49 to 6.98 µM) | 8 to 16 (≈ 14 to 27.9 µM) | 0.5 to 1 (≈ 0.872 to 1.74 µM) | > 128 | 32 to 64 (≈ 55.8 to 112 µM) | 2 to 4 (≈ 3.49 to 6.98 µM) | 32 to 64 (≈ 55.8 to 112 µM) | < 30
NCCCN1CCN(C(=O)N[C@@H](C(=O)N[C@H]2Cc3cccc(C(=O)O)c3OB2O)c2c(O)cc(O)cc2F)C(=O)C1=O (single isomer, unassigned) [Example 195] | 8 to 16 (≈ 13.6 to 27.2 µM) | 2 to 4 (≈ 3.41 to 6.81 µM) | 8 to 16 (≈ 13.6 to 27.2 µM) | 0.5 to 1 (≈ 0.851 to 1.7 µM) | > 128 | 32 to 64 (≈ 54.5 to 109 µM) | 2 to 4 (≈ 3.41 to 6.81 µM) | 32 to 64 (≈ 54.5 to 109 µM) | < 30
NCCN1CCN(C(=O)N[C@@H](C(=O)N[C@H]2Cc3cccc(C(=O)O)c3OB2O)c2ccc(O)c([N+](=O)[O-])c2)C(=O)C1=O (single isomer, unassigned) [Example 199] | 32 to 64 (≈ 54.8 to 110 µM) | 8 to 16 (≈ 13.7 to 27.4 µM) | > 128 | 0.5 to 1 (≈ 0.856 to 1.71 µM) | > 128 | > 128 | 2 to 4 (≈ 3.42 to 6.85 µM) | > 128 | < 30
NCCN1CCN(C(=O)N[C@H](C(=O)N[C@H]2Cc3cccc(C(=O)O)c3OB2O)c2ccc(O)c([N+](=O)[O-])c2)C(=O)C1=O (single isomer, unassigned) [Example 200] | > 128 | > 128 | > 128 | 2 to 4 (≈ 3.42 to 6.85 µM) | > 128 | > 128 | 32 to 64 (≈ 54.8 to 110 µM) | > 128 | > 500
CCN1CCN(C(=O)N[C@H](C(=O)N[C@H]2Cc3cccc(C(=O)O)c3OB2O)c2ccc(C(=O)O)c(F)c2Cl)C(=O)C1=O (single isomer, unassigned) [Example 202] | > 128 | 8 to 16 (≈ 13.2 to 26.5 µM) | > 128 | 2 to 4 (≈ 3.31 to 6.61 µM) | > 128 | > 128 | 32 to 64 (≈ 52.9 to 106 µM) | > 128 | 30 to 500
CCN1CCN(C(=O)N[C@@H](C(=O)N[C@H]2Cc3cccc(C(=O)O)c3OB2O)c2ccc(C(=O)O)c(F)c2Cl)C(=O)C1=O (single isomer, unassigned) [Example 203] | > 128 | 2 to 4 (≈ 3.31 to 6.61 µM) | 32 to 64 (≈ 52.9 to 106 µM) | 0.5 to 1 (≈ 0.827 to 1.65 µM) | > 128 | > 128 | 8 to 16 (≈ 13.2 to 26.5 µM) | > 128 | < 30
NCCN1CCN(C(=O)N[C@H](C(=O)N[C@H]2Cc3cccc(C(=O)O)c3OB2O)c2c(F)cccc2F)C(=O)C1=O (single isomer, unassigned) [Example 204] | > 128 | > 128 | > 128 | 32 to 64 (≈ 57.2 to 114 µM) | > 128 | > 128 | 32 to 64 (≈ 57.2 to 114 µM) | > 128 | > 500
NCCN1CCN(C(=O)N[C@@H](C(=O)N[C@H]2Cc3cccc(C(=O)O)c3OB2O)c2c(F)cccc2Cl)C(=O)C1=O (single isomer, unassigned) [Example 205] | > 128 | 32 to 64 (≈ 55.6 to 111 µM) | > 128 | 8 to 16 (≈ 13.9 to 27.8 µM) | > 128 | > 128 | 8 to 16 (≈ 13.9 to 27.8 µM) | > 128 | 30 to 500
NCCN1CCN(C(=O)N[C@H](C(=O)N[C@H]2Cc3cccc(C(=O)O)c3OB2O)c2c(F)cccc2Cl)C(=O)C1=O (single isomer, unassigned) [Example 206] | > 128 | > 128 | > 128 | 32 to 64 (≈ 55.6 to 111 µM) | > 128 | > 128 | 32 to 64 (≈ 55.6 to 111 µM) | > 128 | > 500
NCCCN1CCN(C(=O)NC(C(=O)N[C@H]2Cc3cccc(C(=O)O)c3OB2O)c2c(F)cc(O)cc2F)C(=O)C1=O (stereo partly drawn) [Example 183, (3R)-3-(2-(4-(3-aminopropyl)-2,3-dioxopiperazine-1-carboxamido)-2-(2,6-difluoro-4-hydroxyphenyl)acetamido)-2-hydroxy-3,4-dihydro-2H-benzo[e][1,2]oxaborinine-8-carboxylic acid] | 8 to 16 (≈ 13.6 to 27.2 µM) | 2 to 4 (≈ 3.39 to 6.79 µM) | 8 to 16 (≈ 13.6 to 27.2 µM) | 2 to 4 (≈ 3.39 to 6.79 µM) | > 128 | 32 to 64 (≈ 54.3 to 109 µM) | 2 to 4 (≈ 3.39 to 6.79 µM) | 32 to 64 (≈ 54.3 to 109 µM) | < 30
CCN1CCN(C(=O)NC(C(=O)N[C@H]2Cc3cccc(C(=O)O)c3OB2O)c2cc([N+](=O)[O-])c(O)cc2F)C(=O)C1=O (stereo partly drawn) [Example 184, (3R)-3-(2-(4-ethyl-2,3-dioxopiperazine-1-carboxamido)-2-(2-fluoro-4-hydroxy-5-nitrophenyl)acetamido)-2-hydroxy-3,4-dihydro-2H-benzo[e][1,2]oxaborinine-8-carboxylic acid] | 32 to 64 (≈ 54.5 to 109 µM) | 2 to 4 (≈ 3.41 to 6.81 µM) | 32 to 64 (≈ 54.5 to 109 µM) | 0.5 to 1 (≈ 0.851 to 1.7 µM) | > 128 | > 128 | 2 to 4 (≈ 3.41 to 6.81 µM) | > 128 | < 30
CCN1CCN(C(=O)NC(C(=O)N[C@H]2Cc3cccc(C(=O)O)c3OB2O)c2ccc(O)c(Cl)c2F)C(=O)C1=O (stereo partly drawn) [Example 185, (3R)-3-(2-(3-chloro-2-fluoro-4-hydroxyphenyl)-2-(4-ethyl-2,3-dioxopiperazine-1-carboxamido)acetamido)-2-hydroxy-3,4-dihydro-2H-benzo[e][1,2]oxaborinine-8-carboxylic acid] | 32 to 64 (≈ 55.5 to 111 µM) | 2 to 4 (≈ 3.47 to 6.94 µM) | 32 to 64 (≈ 55.5 to 111 µM) | 0.5 to 1 (≈ 0.867 to 1.73 µM) | > 128 | 32 to 64 (≈ 55.5 to 111 µM) | 2 to 4 (≈ 3.47 to 6.94 µM) | > 128 | < 30
CCN1CCN(C(=O)NC(C(=O)N[C@H]2Cc3cccc(C(=O)O)c3OB2O)c2c(F)cc(NC(C)=O)cc2F)C(=O)C1=O (stereo partly drawn) [Example 188, (3R)-3-(2-(4-acetamido-2,6-difluorophenyl)-2-(4-ethyl-2,3-dioxopiperazine-1-carboxamido)acetamido)-2-hydroxy-3,4-dihydro-2H-benzo[e][1,2]oxaborinine-8-carboxylic acid] | 32 to 64 (≈ 53.2 to 106 µM) | 2 to 4 (≈ 3.33 to 6.65 µM) | 32 to 64 (≈ 53.2 to 106 µM) | 0.5 to 1 (≈ 0.831 to 1.66 µM) | > 128 | > 128 | 2 to 4 (≈ 3.33 to 6.65 µM) | > 128 | < 30
CCN1CCN(C(=O)NC(C(=O)N[C@H]2Cc3cccc(C(=O)O)c3OB2O)c2cc(C#N)c(OC)cc2F)C(=O)C1=O (stereo partly drawn) [Example 192, (3R)-3-(2-(5-cyano-2-fluoro-4-methoxyphenyl)-2-(4-ethyl-2,3-dioxopiperazine-1-carboxamido)acetamido)-2-hydroxy-3,4-dihydro-2H-benzo[e][1,2]oxaborinine-8-carboxylic acid] | > 128 | 32 to 64 (≈ 55 to 110 µM) | > 128 | 2 to 4 (≈ 3.44 to 6.88 µM) | > 128 | > 128 | 32 to 64 (≈ 55 to 110 µM) | > 128 | 30 to 500
O=C(O)c1cccc2c1OB(O)[C@@H](NC(=O)C(NC(=O)N1CCN(CC3CNC3)C(=O)C1=O)c1c(F)cc(O)cc1F)C2 (stereo partly drawn) [Example 193, (3R)-3-(2-(4-(azetidin-3-ylmethyl)-2,3-dioxopiperazine-1-carboxamido)-2-(2,6-difluoro-4-hydroxyphenyl)acetamido)-2-hydroxy-3,4-dihydro-2H-benzo[e][1,2]oxaborinine-8-carboxylic acid] | 8 to 16 (≈ 13.3 to 26.6 µM) | 2 to 4 (≈ 3.33 to 6.65 µM) | 8 to 16 (≈ 13.3 to 26.6 µM) | 0.5 to 1 (≈ 0.831 to 1.66 µM) | > 128 | 32 to 64 (≈ 53.2 to 106 µM) | 0.5 to 1 (≈ 0.831 to 1.66 µM) | 32 to 64 (≈ 53.2 to 106 µM) | < 30
